# Measured values published in article PMC6332232 (Molecules, 2015).
# B1: CYP3A5 (Homo sapiens) (protein)
# chain: MDLIPNLAVETWLLLAVSLVLLYLYGTRTHGLFKRLGIPGPTPLPLLGNVLSYRQGLWKFDTECYKKYGKMWGTYEGQLPVLAITDPDVIRTVLVKECYSVFTNRRSLGPVGFMKSAISLAEDEEWKRIRSLLSPTFTSGKLKEMFPIIAQYGDVLVRNLRREAEKGKPVTLKDIFGAYSMDVITGTSFGVNIDSLNNPQDPFVESTKKFLKFGFLDPLFLSIILFPFLTPVFEALNVSLFPKDTINFLSKSVNRMKKSRLNDKQKHRLDFLQLMIDSQNSKETESHKALSDLELAAQSIIFIFAGYETTSSVLSFTLYELATHPDVQQKLQKEIDAVLPNKAPPTYDAVVQMEYLDMVVNETLRLFPVAIRLERTCKKDVEINGVFIPKGSMVVIPTYALHHDPKYWTEPEEFRPERFSKKKDSIDPYIYTPFGTGPRNCIGMRFALMNMKLALIRVLQNFSFKPCKETQIPLKLDTQGLLQPEKPIVLKVDSRDGTLSGE
# B2: UGT2B7 (Homo sapiens) (protein)
# chain: GKVLVWAAEYSHWMNIKTILDELIQRGHEVTVLASSASILFDPNNSSALKIEIYPTSLTKTELENFIMQQIKRWSDLPKDTFWLYFSQVQEIMSIFGDITRKFCKDVVSNKKFMKKVQESRFDVIFADAIFPCSELLAELFNIPFVYSLSFSPGYTFEKHSGGFIFPPSYVPVVMSELTDQMTFMERVKNMIYVLYFDFWFEIFDMKKWDQFYSEVLGRPTTLSETMGKADVWLIRNSWNFQFPYPLLPNVDFVGGLHCKPAKPLPKEMEDFVQSSGENGVVVFSLGSMVSNMTEERANVIASALAQIPQKVLWRFDGNKPDTLGLNTRLYKWIPQNDLLGHPKTRAFITHGGANGIYEAIYHGIPMVGIPLFADQPDNIAHMKARGAAVRVDFNTMSSTDLLNALKRVINDPSYKENVMKLSRIQHDQPVKPLDRAVFWIEFVMRHKGAKHLRVAAHDLTWFQYHSLDVIGFLLVCVATVIFIVTKCCLFCFWKFARKAKKGKND
# notes: purchased Corning Life Sciences (Woburn, MA, USA)
# B3: UGT2B4 (Homo sapiens) (protein)
# chain: GKVLVWPTEFSHWMNIKTILDELVQRGHEVTVLASSASISFDPNSPSTLKFEVYPVSLTKTEFEDIIKQLVKRWAELPKDTFWSYFSQVQEIMWTFNDILRKFCKDIVSNKKLMKKLQESRFDVVLADAVFPFGELLAELLKIPFVYSLRFSPGYAIEKHSGGLLFPPSYVPVVMSELSDQMTFIERVKNMIYVLYFEFWFQIFDMKKWDQFYSEVLGRPTTLSETMAKADIWLIRNYWDFQFPHPLLPNVEFVGGLHCKPAKPLPKEMEEFVQSSGENGVVVFSLGSMVSNTSEERANVIASALAKIPQKVLWRFDGNKPDTLGLNTRLYKWIPQNDLLGHPKTRAFITHGGANGIYEAIYHGIPMVGVPLFADQPDNIAHMKAKGAAVSLDFHTMSSTDLLNALKTVINDPLYKENAMKLSRIHHDQPVKPLDRAVFWIEFVMRHKGAKHLRVAAHDLTWFQYHSLDVTGFLLACVATVIFIITKCLFCVWKFVRTGKKGKRD
# notes: purchased Corning Life Sciences
# How the values were obtained:
# [1] = Enzyme kinetics of 4(S)-hydroxyevogliptin glucuronidation in pooled human liver microsomes; type: in vitro ADME
# Procedure: Therefore, a 20 min incubation time and 0.2 mg/mL microsomal protein concentration were selected for enzyme kinetics experiments. The reaction mixture comprised 50 mM Tris buffer (pH 7.4), 10 mM magnesium chloride, 0.025 mg/mL alamethicin, pooled human liver microsomes (20 μg protein), and various concentrations of 4(S)-hydroxyevogliptin (M2) (10 to 2,000 μM; final acetonitrile concentration not exceeding 0.5%, v/v), and was preincubated for 3 min at 37 °C. The reaction was initiated by adding UDPGA, and the mixture was further incubated (final volume of 100 μL) for 20 min at 37 °C in a shaking water bath. The reaction was stopped by adding 100 μL of MPPI (internal standard, 50 ng/mL) in ice-cold acetonitrile. The mixture was centrifuged at 13,000 rpm for 4 min at 4 °C. […]
# Results represent the average of three independent experiments using human liver microsomes and human cDNA-expressed CYP and UGT enzymes. The kinetic parameters (Km and Vmax) for hydroxylation and glucuronidation were determined using the Michaelis-Menten equation [V = Vmax·S/(Km + S)], the Hill equation [V = Vmax·S^n/(Km^n + S^n)], or the isoenzyme equation [V = Vmax1·(S/Km1)/(1 + S/Km1) + Vmax2·(S/Km2)/(1 + S/Km2)] with the Enzyme Kinetics software (version 1.3; Systat Software Inc.). […] The intrinsic clearance (Clint) was calculated as Vmax/Km.
# [2] = Enzyme kinetics of evogliptin hydroxylation in pooled human liver microsomes; type: in vitro ADME; conditions: single-enzyme kinetics; for Km at 20 min: human, pH 7.4, Km
# Procedure: Thus, a 20 min incubation time and 0.15 mg/mL microsomal protein concentration were used in subsequent experiments. […] The mixture was centrifuged at 13,000 rpm for 4 min at 4 °C. Subsequently, 50 μL of the supernatant were diluted with 50 μL of deionized water and an aliquot (5 μL) was injected onto the LC-MS/MS system. Results represent the average of three independent experiments using human liver microsomes and human cDNA-expressed CYP and UGT enzymes. […] Systat Software Inc.). In the above-mentioned equations, V was the velocity of the reaction at substrate concentration [S], Vmax was the maximum velocity, Km was the substrate concentration at which the V was half of Vmax, and n is the Hill constant. The intrinsic clearance (Clint) was calculated as Vmax/Km.
# not read = substrate: CC(C)(C)OC[C@@H]1C(=O)NCCN1C(=O)C[C@H](N)Cc1cc(F)c(F)cc1F; assay: not read; conditions: other: CYP3A5, single-enzyme kinetics; pH 7.4; 37.0 °C
# [3] = substrate: CC(C)(C)OC[C@@H]1C(=O)NCCN1C(=O)C[C@H](N)[C@@H](O)c1cc(F)c(F)cc1F; assay: Enzyme kinetics of 4(S)-hydroxyevogliptin glucuronidation in human cDNA-expressed UGT2B7; type: in vitro ADME; conditions: other: UGT2B7, Hill equation kinetics; pH 7.4; 37.0 °C
# Procedure: (§1) For the enzyme kinetic study, various concentrations of 4(S)-hydroxyevogliptin (M2) (25 to 2000 μM; final acetonitrile concentration not exceeding 0.5%, v/v) were incubated with human cDNA-expressed UGT2B4 or UGT2B7 enzymes (20 μg protein), 2 mM UDPGA, 0.025 mg/mL alamethicin, and 10 mM magnesium chloride in 50 mM Tris buffer (pH 7.4) for 20 min at 37 °C in a shaking water bath. After adding ice-cold acetonitrile containing internal standard (MPPI, 50 ng/mL), the mixture was centrifuged and diluted as described above, and an aliquot (5 μL) was analyzed using the LC-MS/MS system.
# (§2) Results represent the average of three independent experiments using human liver microsomes and human cDNA-expressed CYP and UGT enzymes. The kinetic parameters (Km and Vmax) for hydroxylation and glucuronidation were determined using the Michaelis-Menten equation [V = Vmax·S/(Km + S)], the Hill equation [V = Vmax·S^n/(Km^n + S^n)], or the isoenzyme equation [V = Vmax1·(S/Km1)/(1 + S/Km1) + Vmax2·(S/Km2)/(1 + S/Km2)] with the Enzyme Kinetics software (version 1.3; Systat Software Inc.). In the above-mentioned equations, V was the velocity of the reaction at substrate concentration [S], Vmax was the maximum velocity, Km was the substrate concentration at which the V was half of Vmax, and n is the Hill constant. The intrinsic clearance (Clint) was calculated as Vmax/Km.
# [4] = substrate: CC(C)(C)OC[C@@H]1C(=O)NCCN1C(=O)C[C@H](N)[C@@H](O)c1cc(F)c(F)cc1F; assay: Enzyme kinetics of 4(S)-hydroxyevogliptin glucuronidation in human cDNA-expressed UGT2B4; type: in vitro ADME; conditions: other: UGT2B4, single-enzyme kinetics; pH 7.4; 37.0 °C
# Procedure: as §1, §2
molecule,measurement,setting,value
CC(C)(C)OC[C@@H]1C(=O)NCCN1C(=O)C[C@H](N)[C@@H](O)c1cc(F)c(F)cc1F [4(S)-hydroxyevogliptin],"Vmax, formation of 4(S)-hydroxyevogliptin glucuronide (M4)",[1]; Hill equation,711.4 pmol/mg protein/min
same,Km at 20 min,"[1]; pH 7.4, Hill equation",928 µM
"CC(C)(C)OC[C@@H]1C(=O)NCCN1C(=O)C[C@H](N)Cc1cc(F)c(F)cc1F [evogliptin, (R)-4-((R)-3-amino-4-(2,4,5-trifluorophenyl)butanoyl)-3-(tert-butoxymethyl)-piperazin-2-one]",Km at 20 min,[2]; formation of 4(R)-hydroxyevogliptin (M3),124 µM
same,Km at 20 min,[2]; formation of 4(S)-hydroxyevogliptin (M2),93.4 µM
same,"Vmax, formation of 4(R)-hydroxyevogliptin (M3)",[2],113.0 pmol/min/mg protein
same,"Vmax, formation of 4(S)-hydroxyevogliptin (M2)",[2],91.9 pmol/min/mg protein
B1,kcat,not read,19.5 pmol/min/pmol CYP
B2,Km,[3],1003.8 µM
B3,Km,[4],"1,328 μM"
